# Test results published in patent US12528818B2, “Compositions and methods for inhibition of RAS” (Leidos Biomedical Research, Inc., priority 2021, dated 2026).
# Tested on: pERK in NCI-H358 cells
# Test: Cell-based pERK HTRF assay (pERK inhibition in H358 cells)
# Settings: Homo sapiens, NCI-H358, 0.5 h, pERK inhibition IC50, NCI-H358 cells, 30 min incubation; read-out: PERK in H358 cell
row,SMILES,IC50
1,"C=CC(=O)N1C[C@H](C)N(c2nc(OC[C@]3(C)CCCN3C)nc3c(F)c(-c4ccc(F)c5sc(N)c(C#N)c45)c(C(F)(F)F)cc23)C[C@H]1C [Compound 447, 4-(4-((2S,5R)-4-acryloyl-2,5-dimethylpiperazin-1-yl)-2-(((S)-1,2-dimethylpyrrolidin-2-yl)methoxy)-8-fluoro-6-(trifluoromethyl)quinazolin-7-yl)-2-amino-7-fluorobenzo[b]thiophene-3-carbonitrile]",< 100 nM
2,C=CC(=O)N1CCC(N(C)c2nc(OC[C@@H]3CC4(CC4)CN3C)nc3c(F)c(-c4ccc(F)c5sc(N)c(C#N)c45)c(Cl)cc23)[C@H]1C (stereo partly shown) [Compound 448],100 to 1000 nM
3,C=CC(=O)N1CCC(N(C)c2nc(OC[C@@H]3C[C@@H](F)CN3C)nc3c(F)c(-c4ccc(F)c5sc(N)c(C#N)c45)c(Cl)cc23)[C@H]1C (stereo partly shown) [Compound 449],100 to 1000 nM
4,C=CC(=O)N1CCC(N(C)c2nc(OC[C@@H]3C[C@@H](OC)CN3C)nc3c(F)c(-c4ccc(F)c5sc(N)c(C#N)c45)c(Cl)cc23)[C@H]1C (stereo partly shown) [Compound 450],< 100 nM
5,C=CC(=O)N1CCC(N(C)c2nc(OC[C@@H]3CCCN3CC)nc3c(F)c(-c4ccc(F)c5sc(N)c(C#N)c45)c(C(F)(F)F)cc23)[C@H]1C (stereo partly shown) [Compound 451],< 100 nM
6,C=CC(=O)N1CCC(N(CC)c2nc(OC[C@@H]3C[C@@H](F)CN3C)nc3c(F)c(-c4ccc(F)c5sc(N)c(C#N)c45)c(C(F)(F)F)cc23)[C@H]1COC (stereo partly shown) [Compound 453],< 100 nM
7,C=CC(=O)N1CCC(N(C)c2nc(OC[C@@H]3C[C@@H](OC)CN3C)nc3c(F)c(-c4ccc(F)c5sc(N)c(C#N)c45)c(C(F)(F)F)cc23)[C@H]1COC (stereo partly shown) [Compound 454],< 100 nM
8,C=CC(=O)N1CCC(N(C)c2nc(OC[C@@H]3CCCN3C)nc3cc(-c4ccc(F)c5sc(N)c(C#N)c45)c(C#N)cc23)[C@H]1COC (stereo partly shown) [Compound 455],100 to 1000 nM
9,C=CC(=O)N1CCC(N(C)c2nc(OC[C@@H]3CC4(CC4)CN3C)nc3c(F)c(-c4ccc(F)c5sc(N)c(C#N)c45)c(C(F)(F)F)cc23)[C@H]1COC (stereo partly shown) [Compound 456],< 100 nM
10,C=CC(=O)N1CCC(N(C)c2nc(OC)nc3c(F)c(-c4ccc(F)c5sc(N)c(C#N)c45)ccc23)[C@H]1C (stereo partly shown) [Compound 461],> 1000 nM
11,C=CC(=O)N1CCC(N(C)c2ncnc3c(F)c(-c4ccc(F)c5sc(N)c(C#N)c45)ccc23)[C@H]1C (stereo partly shown) [Compound 462],> 1000 nM
12,C=CC(=O)N1CC[C@@H](N(C)c2nc(OCC)nc3c(F)c(-c4ccc(F)c5sc(N)c(C#N)c45)ccc23)[C@H]1C [Compound 463],> 1000 nM
13,C=CC(=O)N1CCC(N(C)c2nc(OC[C@@H]3CCCN3CC)nc3c(F)c(-c4ccc(F)c5sc(N)c(C#N)c45)c(Cl)cc23)[C@H]1C (stereo partly shown) [Compound 464],< 100 nM
14,C=CC(=O)N1CCC(N(C)c2nc(OC[C@@H]3C[C@@H](OC)CN3C)nc3cc(-c4ccc(F)c5sc(N)c(C#N)c45)c(C#N)cc23)[C@H]1COC (stereo partly shown) [Compound 465],100 to 1000 nM
15,C=CC(=O)N1CCC(N(C)c2nc(OCCOC)nc3c(F)c(-c4ccc(F)c5sc(N)c(C#N)c45)ccc23)[C@H]1C (stereo partly shown) [Compound 466],> 1000 nM
16,C=CC(=O)N1CCC(N(C)c2nc(OCCO)nc3c(F)c(-c4ccc(F)c5sc(N)c(C#N)c45)ccc23)[C@H]1C (stereo partly shown) [Compound 468],100 to 1000 nM
17,C=CC(=O)N1CC[C@@H](N(C)c2nc(OC[C@@]34CCCN3C[C@H](F)C4)nc3c(F)c(-c4ccc(F)c5sc(N)c(C#N)c45)c(C(F)(F)F)cc23)[C@@H]1C [Compound 469],< 100 nM
18,C=CC(=O)N1CCC(N(CC)c2nc(OC[C@@H]3CCCN3C)nc3cc(-c4ccc(F)c5sc(N)c(C#N)c45)c(C#N)cc23)[C@H]1COC (stereo partly shown) [Compound 470],100 to 1000 nM
19,C=CC(=O)N1CCC(N(CC)c2nc(OC[C@@H]3C[C@@H](F)CN3C)nc3cc(-c4ccc(F)c5sc(N)c(C#N)c45)c(C#N)cc23)[C@H]1COC (stereo partly shown) [Compound 471],100 to 1000 nM
20,C=CC(=O)N1CCC(N(C)c2nc(OC[C@@]34CCCN3C[C@H](OC)C4)nc3c(F)c(-c4ccc(F)c5sc(N)c(C#N)c45)c(Cl)cc23)[C@H]1C (stereo partly shown) [Compound 474],< 100 nM
21,C=CC(=O)N1CCC(N(C)c2nc(OC[C@@]34CCCN3C[C@H](OC)C4)nc3c(F)c(-c4ccc(F)c5sc(N)c(C#N)c45)c(C(F)(F)F)cc23)[C@H]1C (stereo partly shown) [Compound 476],< 100 nM
22,C=CC(=O)N1CCC(N(C)c2nc(OC[C@]34CCCN3C[C@H](F)C4)nc3c(F)c(-c4ccc(F)c5sc(N)c(C#N)c45)c(C(F)(F)F)cc23)[C@H]1C (stereo partly shown) [Compound 477],< 100 nM
